Reference: PMC4774911, “Biochemical Screening of Five Protein Kinases from Plasmodium falciparum against 14,000 Cell-Active Compounds” (PLoS ONE, 2016)
Several values for one entry are separate records, joined by “and”; a condition that tells them apart may be missing. Equal values may be shown once.

Key:
Assay in all cases: biochemical
ACVR1B = target: T1, ACVR1B (Homo sapiens, UniProt P36896)
T1 sequence (P36896 1-505): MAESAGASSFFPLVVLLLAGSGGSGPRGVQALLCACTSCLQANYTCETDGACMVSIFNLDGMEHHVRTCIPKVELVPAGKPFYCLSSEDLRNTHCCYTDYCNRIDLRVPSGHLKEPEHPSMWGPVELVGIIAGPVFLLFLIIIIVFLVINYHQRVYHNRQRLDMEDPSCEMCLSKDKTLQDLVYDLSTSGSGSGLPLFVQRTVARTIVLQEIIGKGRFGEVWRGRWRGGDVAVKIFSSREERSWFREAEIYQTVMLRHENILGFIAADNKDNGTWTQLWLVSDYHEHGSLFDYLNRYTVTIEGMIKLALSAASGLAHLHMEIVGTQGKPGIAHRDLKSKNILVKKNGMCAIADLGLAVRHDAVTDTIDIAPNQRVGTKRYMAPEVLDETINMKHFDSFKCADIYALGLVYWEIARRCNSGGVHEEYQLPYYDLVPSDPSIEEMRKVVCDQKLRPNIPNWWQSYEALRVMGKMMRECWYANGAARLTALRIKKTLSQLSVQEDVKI

CDC42BPG = CDC42BPG (Homo sapiens, UniProt Q6DT37)
CLK1 = CLK1 (Homo sapiens, UniProt P49759)
IKBKB = target: T2, IKBKB (Homo sapiens, UniProt O14920)
T2 sequence (O14920 1-756): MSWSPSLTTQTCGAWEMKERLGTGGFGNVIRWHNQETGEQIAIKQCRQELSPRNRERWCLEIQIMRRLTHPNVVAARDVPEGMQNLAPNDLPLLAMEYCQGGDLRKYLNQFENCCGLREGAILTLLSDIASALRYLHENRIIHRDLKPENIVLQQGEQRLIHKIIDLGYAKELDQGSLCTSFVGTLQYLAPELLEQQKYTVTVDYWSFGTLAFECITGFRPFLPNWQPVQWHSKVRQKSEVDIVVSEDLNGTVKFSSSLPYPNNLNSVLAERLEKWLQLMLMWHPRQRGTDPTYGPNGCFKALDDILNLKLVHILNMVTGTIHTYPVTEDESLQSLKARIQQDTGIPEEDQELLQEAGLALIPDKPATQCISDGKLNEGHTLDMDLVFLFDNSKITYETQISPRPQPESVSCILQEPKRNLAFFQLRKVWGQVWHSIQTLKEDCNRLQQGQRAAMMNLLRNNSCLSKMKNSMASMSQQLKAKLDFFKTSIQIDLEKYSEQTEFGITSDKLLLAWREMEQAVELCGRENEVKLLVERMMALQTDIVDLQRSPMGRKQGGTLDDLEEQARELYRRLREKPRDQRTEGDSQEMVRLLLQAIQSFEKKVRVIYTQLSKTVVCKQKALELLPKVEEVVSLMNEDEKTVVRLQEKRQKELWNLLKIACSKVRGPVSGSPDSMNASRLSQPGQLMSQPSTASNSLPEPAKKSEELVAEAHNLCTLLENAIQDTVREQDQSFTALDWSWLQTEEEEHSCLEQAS

MAPK3 = MAPK3 (Homo sapiens, UniProt P27361)
MAPK9 = MAPK9 (Homo sapiens, UniProt P45984)
MELK = MELK (Homo sapiens, UniProt Q14680)
PIP4K2A = target: T3, PIP4K2A (Homo sapiens, UniProt P48426)
T3 sequence (P48426 1-406): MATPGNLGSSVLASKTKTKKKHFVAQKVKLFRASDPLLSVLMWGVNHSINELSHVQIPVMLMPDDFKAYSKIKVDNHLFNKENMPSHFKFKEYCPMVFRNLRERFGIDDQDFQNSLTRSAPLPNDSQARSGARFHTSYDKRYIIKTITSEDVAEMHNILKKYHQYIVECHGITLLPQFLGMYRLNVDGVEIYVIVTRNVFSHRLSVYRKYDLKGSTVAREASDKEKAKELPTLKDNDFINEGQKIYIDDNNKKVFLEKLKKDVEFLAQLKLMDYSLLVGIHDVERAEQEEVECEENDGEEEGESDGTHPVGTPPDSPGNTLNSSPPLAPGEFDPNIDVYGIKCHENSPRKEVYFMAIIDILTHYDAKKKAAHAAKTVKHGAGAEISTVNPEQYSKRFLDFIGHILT

TEC = target: T4, TEC (Homo sapiens, UniProt P42680)
T4 sequence (P42680 1-631): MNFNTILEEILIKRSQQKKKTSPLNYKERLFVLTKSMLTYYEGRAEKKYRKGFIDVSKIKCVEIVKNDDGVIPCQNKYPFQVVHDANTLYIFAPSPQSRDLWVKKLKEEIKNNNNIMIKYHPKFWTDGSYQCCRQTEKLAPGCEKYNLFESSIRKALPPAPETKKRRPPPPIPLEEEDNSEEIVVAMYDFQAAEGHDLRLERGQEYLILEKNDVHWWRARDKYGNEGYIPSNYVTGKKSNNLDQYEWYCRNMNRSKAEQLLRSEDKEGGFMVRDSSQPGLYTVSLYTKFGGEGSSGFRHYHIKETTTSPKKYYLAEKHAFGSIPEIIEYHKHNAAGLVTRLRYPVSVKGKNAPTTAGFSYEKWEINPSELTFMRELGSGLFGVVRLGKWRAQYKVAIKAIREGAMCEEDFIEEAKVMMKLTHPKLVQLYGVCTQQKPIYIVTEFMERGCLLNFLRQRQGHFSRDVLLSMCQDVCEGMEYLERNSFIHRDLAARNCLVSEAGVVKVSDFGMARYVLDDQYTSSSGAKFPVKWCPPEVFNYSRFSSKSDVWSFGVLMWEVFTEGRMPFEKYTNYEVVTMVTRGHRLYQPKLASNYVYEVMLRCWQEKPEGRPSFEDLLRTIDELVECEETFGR

YES1 = YES1 (Homo sapiens, UniProt P07947)
ZAK = ZAK (Homo sapiens, UniProt Q9NYL2)
ZAK, sequence (Q9NYL2 whole entry): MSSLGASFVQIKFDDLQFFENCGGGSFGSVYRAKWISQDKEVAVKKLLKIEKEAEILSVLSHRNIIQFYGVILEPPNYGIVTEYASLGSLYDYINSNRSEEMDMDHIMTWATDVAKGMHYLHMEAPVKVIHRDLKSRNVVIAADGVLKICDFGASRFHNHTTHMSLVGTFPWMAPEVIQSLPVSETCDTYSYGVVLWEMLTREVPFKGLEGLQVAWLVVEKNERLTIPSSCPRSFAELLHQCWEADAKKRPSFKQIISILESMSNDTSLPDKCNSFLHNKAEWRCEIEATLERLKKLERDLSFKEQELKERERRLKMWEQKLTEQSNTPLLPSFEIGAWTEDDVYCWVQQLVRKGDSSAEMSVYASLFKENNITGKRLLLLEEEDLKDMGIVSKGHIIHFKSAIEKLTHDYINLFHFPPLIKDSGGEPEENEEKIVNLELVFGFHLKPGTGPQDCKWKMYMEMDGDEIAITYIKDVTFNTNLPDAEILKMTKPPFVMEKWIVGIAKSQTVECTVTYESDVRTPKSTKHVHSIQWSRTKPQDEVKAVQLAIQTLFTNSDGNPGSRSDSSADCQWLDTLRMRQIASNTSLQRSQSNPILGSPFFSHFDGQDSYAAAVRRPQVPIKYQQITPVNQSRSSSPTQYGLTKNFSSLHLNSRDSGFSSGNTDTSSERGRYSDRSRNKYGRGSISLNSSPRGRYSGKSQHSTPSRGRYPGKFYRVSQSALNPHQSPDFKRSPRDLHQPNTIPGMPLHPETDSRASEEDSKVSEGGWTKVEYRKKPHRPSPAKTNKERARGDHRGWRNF

CDC42BPG, sequence (Q6DT37 whole entry): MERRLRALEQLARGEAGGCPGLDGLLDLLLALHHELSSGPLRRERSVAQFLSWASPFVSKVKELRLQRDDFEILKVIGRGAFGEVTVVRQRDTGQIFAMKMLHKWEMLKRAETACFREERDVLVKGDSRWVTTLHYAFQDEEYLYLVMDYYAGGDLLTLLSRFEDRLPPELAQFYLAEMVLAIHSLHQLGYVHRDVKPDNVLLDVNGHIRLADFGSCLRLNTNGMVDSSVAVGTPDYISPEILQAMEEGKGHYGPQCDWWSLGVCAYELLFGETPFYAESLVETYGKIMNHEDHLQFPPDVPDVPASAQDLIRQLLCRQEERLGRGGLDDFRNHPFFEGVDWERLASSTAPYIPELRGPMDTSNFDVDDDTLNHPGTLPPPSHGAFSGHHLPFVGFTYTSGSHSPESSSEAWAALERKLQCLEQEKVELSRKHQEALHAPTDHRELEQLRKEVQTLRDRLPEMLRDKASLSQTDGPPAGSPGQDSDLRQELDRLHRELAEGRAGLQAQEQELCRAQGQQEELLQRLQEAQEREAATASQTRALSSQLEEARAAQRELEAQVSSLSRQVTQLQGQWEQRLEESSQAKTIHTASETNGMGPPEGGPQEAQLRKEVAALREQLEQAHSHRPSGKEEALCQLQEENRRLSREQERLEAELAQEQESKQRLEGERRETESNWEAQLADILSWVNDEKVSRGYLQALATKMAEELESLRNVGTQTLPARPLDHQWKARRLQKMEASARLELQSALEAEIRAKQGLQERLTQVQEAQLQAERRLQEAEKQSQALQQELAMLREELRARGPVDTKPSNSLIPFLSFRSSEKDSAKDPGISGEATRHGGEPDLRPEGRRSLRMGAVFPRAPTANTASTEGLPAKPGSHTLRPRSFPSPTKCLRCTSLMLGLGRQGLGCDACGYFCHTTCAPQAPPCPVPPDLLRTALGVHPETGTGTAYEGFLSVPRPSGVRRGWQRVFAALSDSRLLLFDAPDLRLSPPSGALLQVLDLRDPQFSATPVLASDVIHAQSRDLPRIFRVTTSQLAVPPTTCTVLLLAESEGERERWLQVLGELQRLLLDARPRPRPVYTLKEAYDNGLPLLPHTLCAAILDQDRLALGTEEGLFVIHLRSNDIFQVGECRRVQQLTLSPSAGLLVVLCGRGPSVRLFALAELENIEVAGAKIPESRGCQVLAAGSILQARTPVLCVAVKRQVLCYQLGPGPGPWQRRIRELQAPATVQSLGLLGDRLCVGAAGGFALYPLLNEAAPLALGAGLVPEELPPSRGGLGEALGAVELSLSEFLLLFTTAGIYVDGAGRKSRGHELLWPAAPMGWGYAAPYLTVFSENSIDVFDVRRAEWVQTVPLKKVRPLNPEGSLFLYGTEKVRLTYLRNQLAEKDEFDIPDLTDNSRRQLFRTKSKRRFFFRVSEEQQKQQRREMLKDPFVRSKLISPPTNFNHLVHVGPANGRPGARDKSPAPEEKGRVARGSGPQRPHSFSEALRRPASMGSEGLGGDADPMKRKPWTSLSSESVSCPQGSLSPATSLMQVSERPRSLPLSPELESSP
MELK, sequence (Q14680 whole entry): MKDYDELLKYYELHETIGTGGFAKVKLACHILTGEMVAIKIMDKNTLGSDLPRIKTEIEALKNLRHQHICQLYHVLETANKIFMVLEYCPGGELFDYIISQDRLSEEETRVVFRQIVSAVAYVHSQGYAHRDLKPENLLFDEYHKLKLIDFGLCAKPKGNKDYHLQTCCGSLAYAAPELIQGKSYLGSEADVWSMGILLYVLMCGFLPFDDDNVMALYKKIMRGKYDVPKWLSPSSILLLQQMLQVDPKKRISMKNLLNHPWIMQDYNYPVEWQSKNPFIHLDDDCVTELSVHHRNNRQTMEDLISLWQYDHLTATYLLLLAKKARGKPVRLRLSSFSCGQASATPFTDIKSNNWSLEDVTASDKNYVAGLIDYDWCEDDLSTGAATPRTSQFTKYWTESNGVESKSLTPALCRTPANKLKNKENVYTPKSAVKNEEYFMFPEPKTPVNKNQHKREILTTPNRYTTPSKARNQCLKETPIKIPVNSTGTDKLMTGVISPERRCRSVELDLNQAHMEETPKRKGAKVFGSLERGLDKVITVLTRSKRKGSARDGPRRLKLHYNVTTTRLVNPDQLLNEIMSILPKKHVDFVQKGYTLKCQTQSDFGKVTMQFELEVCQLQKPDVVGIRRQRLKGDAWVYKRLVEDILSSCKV
YES1, sequence (P07947 whole entry): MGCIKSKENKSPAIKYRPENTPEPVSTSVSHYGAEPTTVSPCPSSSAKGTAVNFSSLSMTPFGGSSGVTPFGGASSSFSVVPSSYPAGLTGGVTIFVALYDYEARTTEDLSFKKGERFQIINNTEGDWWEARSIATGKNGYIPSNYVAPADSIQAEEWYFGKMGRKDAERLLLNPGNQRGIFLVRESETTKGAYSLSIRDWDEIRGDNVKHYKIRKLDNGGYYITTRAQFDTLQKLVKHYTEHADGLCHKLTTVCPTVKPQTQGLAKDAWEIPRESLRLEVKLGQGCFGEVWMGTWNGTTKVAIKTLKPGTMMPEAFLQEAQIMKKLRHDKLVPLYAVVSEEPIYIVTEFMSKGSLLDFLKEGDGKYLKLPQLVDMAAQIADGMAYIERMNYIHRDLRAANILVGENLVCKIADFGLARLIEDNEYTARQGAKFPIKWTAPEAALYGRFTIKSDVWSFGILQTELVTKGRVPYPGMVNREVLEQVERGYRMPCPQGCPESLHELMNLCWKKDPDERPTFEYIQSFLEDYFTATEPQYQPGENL
CLK1, sequence (P49759 whole entry): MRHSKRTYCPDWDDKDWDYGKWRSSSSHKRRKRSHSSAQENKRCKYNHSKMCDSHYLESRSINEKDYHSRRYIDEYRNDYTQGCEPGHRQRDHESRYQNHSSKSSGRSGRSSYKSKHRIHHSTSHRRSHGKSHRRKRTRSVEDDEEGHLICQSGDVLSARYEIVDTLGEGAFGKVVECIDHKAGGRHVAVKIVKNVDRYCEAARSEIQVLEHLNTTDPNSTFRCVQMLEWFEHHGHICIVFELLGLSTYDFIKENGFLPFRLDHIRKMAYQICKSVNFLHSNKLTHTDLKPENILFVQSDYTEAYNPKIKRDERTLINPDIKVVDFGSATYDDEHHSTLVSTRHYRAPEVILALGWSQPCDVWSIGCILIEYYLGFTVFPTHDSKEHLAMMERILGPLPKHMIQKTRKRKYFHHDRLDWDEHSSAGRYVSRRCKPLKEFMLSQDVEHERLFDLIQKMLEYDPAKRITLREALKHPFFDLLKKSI
MAPK9, sequence (P45984 whole entry): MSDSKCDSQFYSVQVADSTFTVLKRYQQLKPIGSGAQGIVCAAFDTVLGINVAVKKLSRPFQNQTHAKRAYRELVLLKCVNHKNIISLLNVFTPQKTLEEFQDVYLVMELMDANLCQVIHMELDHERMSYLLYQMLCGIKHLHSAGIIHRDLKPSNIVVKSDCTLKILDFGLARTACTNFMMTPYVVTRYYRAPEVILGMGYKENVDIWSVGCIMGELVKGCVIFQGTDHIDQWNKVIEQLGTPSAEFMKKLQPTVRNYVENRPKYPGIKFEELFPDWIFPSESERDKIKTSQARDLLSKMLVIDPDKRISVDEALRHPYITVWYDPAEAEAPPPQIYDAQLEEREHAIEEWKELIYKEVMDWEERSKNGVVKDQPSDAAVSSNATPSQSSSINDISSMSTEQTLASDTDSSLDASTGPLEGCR
MAPK3, sequence (P27361 whole entry): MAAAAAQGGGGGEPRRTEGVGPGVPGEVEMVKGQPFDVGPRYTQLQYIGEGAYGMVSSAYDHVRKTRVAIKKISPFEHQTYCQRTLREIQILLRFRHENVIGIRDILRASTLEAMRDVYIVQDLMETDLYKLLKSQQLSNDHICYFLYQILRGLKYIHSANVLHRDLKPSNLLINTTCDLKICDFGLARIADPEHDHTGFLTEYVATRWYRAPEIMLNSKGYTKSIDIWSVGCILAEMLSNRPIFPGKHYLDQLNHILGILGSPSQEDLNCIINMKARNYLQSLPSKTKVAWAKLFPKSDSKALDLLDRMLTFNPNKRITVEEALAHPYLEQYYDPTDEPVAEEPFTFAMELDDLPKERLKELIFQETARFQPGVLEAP

SMILES	IC50 (ACVR1B)	IC50 (CDC42BPG)	IC50 (CLK1)	IC50 (IKBKB)	IC50 (MAPK3)	IC50 (MAPK9)	IC50 (MELK)	IC50 (PIP4K2A)	IC50 (TEC)	IC50 (YES1)	IC50 (ZAK)
CN1CCN(c2ccc(Nc3ncc(C#N)c(Nc4ccccc4C(N)=O)n3)cc2)CC1.Cl [TCMDC-134116]	4 µM	1 µM	47 nM and 48 nM	> 20 µM	> 20 µM	1100 nM and 1000 nM	0.36 µM and 0.35 µM	1100 nM and 1400 nM	460 nM and 490 nM	0.12 µM and 0.15 µM	0.95 µM
Cl.NCC1(c2nc(-c3ccc(Cl)c(O)c3)c(-c3ccncc3)[nH]2)CCCCC1 [TCMDC-141154]	0.59 µM	8 µM	> 20000 nM	> 20 µM	> 20 µM	1700 nM	4.7 µM and 4.5 µM	> 20000 nM	> 20000 nM	4.4 µM and 7.7 µM	8.6 µM and 5.1 µM
CN(C)CC(O)COc1ccc(Nc2ncc([N+](=O)[O-])c(Nc3ccccc3O)n2)cc1.O=C(O)C(F)(F)F (stereo not drawn) [TCMDC-141399]	> 20 µM	9.6 µM	390 nM and 270 nM	> 20 µM	> 20 µM	> 20000 nM	> 20 µM	1200 nM and 950 nM	> 20000 nM	> 20 µM	> 20 µM
